Measured values published in ChEMBL document CHEMBL2202979, “Development of macrocyclic inhibitors of HCV NS3/4A protease with cyclic constrained P2-P4 linkers” (Bioorg Med Chem Lett, 2012).

Columns and labels:
[1] = Inhibition of HCV genotype 1b BK NS3/4A protease expressed in Escherichia coli incubated for 30 mins by time-resolved fluorescence assay; design: species or system Hepatitis C virus (isolate BK)
[2] = Drug level in Sprague-Dawley rat liver at 5 mg/kg, po measured 4 hrs post dose by LC/MS method; format: ADME, organism-based; design: dose 5 mg/kg, route oral; details: read-out: Drug uptake
Genome polyprotein [3] = target: Genome polyprotein (Hepacivirus C, UniProt K7XJL6, A156V); assay: Inhibition of HCV genotype 1b BK NS3/4A protease A156V mutant expressed in Escherichia coli incubated for 30 mins by time-resolved fluorescence assay; design: species or system Hepatitis C virus (isolate BK)
[4] = Inhibition of HCV subtype 3a NS3/4A protease incubated for 30 mins by time-resolved fluorescence assay; design: species or system Hepatitis C virus subtype 3a
Genome polyprotein [5] = target: Genome polyprotein (Hepacivirus C, UniProt K7XJL6, A156T); assay: Inhibition of HCV genotype 1b BK NS3/4A protease A156T mutant expressed in Escherichia coli incubated for 30 mins by time-resolved fluorescence assay; design: species or system Hepatitis C virus (isolate BK)
Hepatitis C virus [6] = assay: Antiviral activity against HCV genotype 1b Con1 infected in human Huh7 cells assessed as inhibition of viral replication in presence of 50% NHS by HCV bicistronic replicon assay; format: functional, organism-based, Hepacivirus hominis; details: Con1, Huh-7
[7] = target: Hepatitis C virus serine protease, NS3/NS4A (Hepatitis C virus, UniProt A3EZI9+D2K2A8, R155K); assay: Inhibition of HCV genotype 1b BK NS3/4A protease R155K mutant expressed in Escherichia coli incubated for 30 mins by time-resolved fluorescence assay; design: species or system Hepatitis C virus (isolate BK)
Genome polyprotein [8] = target: Genome polyprotein (Hepacivirus C, UniProt K7XJL6, D168V); assay: Inhibition of HCV genotype 1b BK NS3/4A protease D168V mutant expressed in Escherichia coli incubated for 30 mins by time-resolved fluorescence assay; design: species or system Hepatitis C virus (isolate BK)
Hepatitis C virus [9] = assay: Antiviral activity against HCV genotype 1b Con1 infected in human Huh7 cells assessed as inhibition of viral replication in presence of 10% FBS by HCV bicistronic replicon assay; format: functional, organism-based, Hepacivirus hominis; details: Con1, Huh-7
[10] = Inhibition of HCV genotype 2a JFH NS3/4A protease expressed in Escherichia coli incubated for 30 mins by time-resolved fluorescence assay; design: species or system Hepatitis C virus JFH-1

Row | SMILES | Ki [1] [nM] | concentration at 4 h [2] [µM] | Ki (Genome polyprotein [3]) [nM] | Ki [4] [nM] | Ki (Genome polyprotein [5]) [nM] | IC50 (Hepatitis C virus [6]) [nM] | Ki [7] [nM] | Ki (Genome polyprotein [8]) [nM] | IC50 (Hepatitis C virus [9]) [nM] | Ki [10] [nM]
1 | C=C[C@@H]1C[C@]1(NC(=O)[C@@H]1C[C@@H]2CN1C(=O)[C@H](C1CCCCC1)NC(=O)N1CC(C1)OCCC/C=C/c1cc3c(cc(OCC)nc3cc1OC)O2)C(=O)NS(=O)(=O)C1CC1 | < 0.05 | 4 | 6.1 | 0.9 | 0.2 | 64 | 0.2 | – | – | –
2 | C=C[C@@H]1C[C@]1(NC(=O)[C@@H]1C[C@@H]2CN1C(=O)[C@H](C1CCCCC1)NC(=O)N1CCC(CC1)OCCC/C=C/c1cc3c(cc(OCC)nc3cc1OC)O2)C(=O)NS(=O)(=O)C1CC1 | < 0.05 | 11 | 18 | 2.1 | 0.7 | 32 | 0.2 | – | – | –
3 | C=C[C@@H]1C[C@]1(NC(=O)[C@@H]1C[C@@H]2CN1C(=O)[C@H](C1CCCCC1)NC(=O)N1CCC[C@@H](C1)OCCCc1cc3c(cc(OCC)nc3cc1OC)O2)C(=O)NS(=O)(=O)C1CC1 | < 0.05 | 4.4 | 46 | 2.3 | 1.9 | 23 | 1.2 | – | – | –
4 | C=C[C@@H]1C[C@]1(NC(=O)[C@@H]1C[C@@H]2CN1C(=O)[C@H](C1CCCCC1)NC(=O)N1CC[C@H](C1)OC/C=C/c1cc3c(cc(OCC)nc3cc1OC)O2)C(=O)NS(=O)(=O)C1CC1 | < 0.05 | – | 134 | 3.6 | 2.4 | 29 | 0.3 | – | – | –
5 | C=C[C@@H]1C[C@]1(NC(=O)[C@@H]1C[C@@H]2CN1C(=O)[C@H](C1CCCCC1)NC(=O)O[C@@H]1COC[C@H]1C/C=C/c1cc3c(cc(OCC)nc3cc1OC)O2)C(=O)NS(=O)(=O)C1CC1 | < 0.05 | 0.3 | 23 | 1.9 | 0.7 | 18 | 0.5 | – | – | –
6 | C=C[C@@H]1C[C@]1(NC(=O)[C@@H]1C[C@@H]2CN1C(=O)[C@H](C1CCCCC1)NC(=O)N1CCC(CC1)OCCC/C=C/c1cc3ccc(OC)cc3nc1O2)C(=O)NS(=O)(=O)C1CC1 | < 0.05 | – | – | 27 | 11 | – | 0.3 | – | – | –
7 | C=C[C@@H]1C[C@]1(NC(=O)[C@@H]1C[C@@H]2CN1C(=O)[C@H](C1CCCC1)NC(=O)OCC(C)(C)C[C@@H]1C[C@@H]1c1cc3c(cc(OCC)nc3cc1OC)O2)C(=O)NS(=O)(=O)C1CC1 | 0.016 | 27 | 14 | 1 | 2.8 | 11 | 0.2 | 1.8 | 2.3 | 0.14
8 | C=C[C@@H]1C[C@]1(NC(=O)[C@@H]1C[C@@H]2CN1C(=O)[C@H](C1CCCCC1)NC(=O)N1CC[C@@H](C1)OC/C=C/c1cc3c(cc(OCC)nc3cc1OC)O2)C(=O)NS(=O)(=O)C1CC1 | < 0.05 | 4.8 | 6.8 | 1.4 | 0.4 | 43 | 0.2 | – | – | –
9 | C=C[C@@H]1C[C@]1(NC(=O)[C@@H]1C[C@@H]2CN1C(=O)[C@H](C1CCCC1)NC(=O)O[C@@H]1CCC[C@H]1C/C=C/c1cc3c(cc(OCC)nc3cc1OC)O2)C(=O)NS(=O)(=O)C1CC1 | < 0.05 | 10.2 | 15 | 4.6 | 0.8 | 17 | 0.5 | – | – | –
10 | C=C[C@@H]1C[C@]1(NC(=O)[C@@H]1C[C@@H]2CN1C(=O)[C@H](C1CCCC1)NC(=O)N1CC[C@@H](C1)OCCCCCc1cc3ccc(OC)cc3nc1O2)C(=O)NS(=O)(=O)C1CC1 | < 0.05 | 12 | 22 | 5.9 | 1.5 | 31 | 0.1 | – | – | –
11 | C=C[C@@H]1C[C@]1(NC(=O)[C@@H]1C[C@@H]2CN1C(=O)[C@H](C1CCCC1)NC(=O)N1CC[C@@H](C1)OCCC/C=C/c1cc3ccc(OC)cc3nc1O2)C(=O)NS(=O)(=O)C1CC1 | 0.016 | 8.6 | 37 | 3 | 2.9 | 32 | 0.1 | 1.2 | 3.1 | 0.17
12 | C=C[C@@H]1C[C@]1(NC(=O)[C@@H]1C[C@@H]2CN1C(=O)[C@H](C1CCCC1)NC(=O)O[C@@H]1CCC[C@H]1CCC/C=C/c1cc3ccc(OC)cc3nc1O2)C(=O)NS(=O)(=O)C1CC1 | < 0.05 | 30.8 | – | 11.6 | 17 | 58 | 0.2 | – | – | –
13 | C=C[C@@H]1C[C@]1(NC(=O)[C@@H]1C[C@@H]2CN1C(=O)[C@H](C1CCCC1)NC(=O)O[C@H]1C[C@H](C/C=C/c3cc4c(cc(OCC)nc4cc3OC)O2)C1)C(=O)NS(=O)(=O)C1CC1 | < 0.05 | – | 16 | 7.7 | 4.8 | 16 | 2.4 | – | – | –
14 | C=C[C@@H]1C[C@]1(NC(=O)[C@@H]1C[C@@H]2CN1C(=O)[C@H](C1CCCC1)NC(=O)O[C@@H]1CCC(CCCc3cc4c(cc(OCC)nc4cc3OC)O2)C1)C(=O)NS(=O)(=O)C1CC1 (mixture of isomers) | < 0.05 | – | 46 | 5 | 4.6 | 24 | 2 | – | – | –
15 | C=C[C@@H]1C[C@]1(NC(=O)[C@@H]1C[C@@H]2CN1C(=O)[C@H](C1CCCC1)NC(=O)O[C@@H]1CCC[C@@]1(C)C/C=C/c1cc3c(cc(OCC)nc3cc1OC)O2)C(=O)NS(=O)(=O)C1CC1 | < 0.05 | – | – | 4.1 | 49 | 38 | 0.9 | – | – | –
16 | C=C[C@@H]1C[C@]1(NC(=O)[C@@H]1C[C@@H]2CN1C(=O)[C@H](C1CCCC1)NC(=O)OCC(C)(C)CCCc1cc3c(cc(OCC)nc3cc1OC)O2)C(=O)NS(=O)(=O)C1CC1 | 0.016 | – | – | 2.1 | – | – | 1.2 | 2.2 | – | 0.14
17 | C=C[C@@H]1C[C@]1(NC(=O)[C@@H]1C[C@@H]2CN1C(=O)[C@H](C1CCCCC1)NC(=O)O[C@@H]1CCCC[C@H]1C/C=C/c1cc3c(cc(OCC)nc3cc1OC)O2)C(=O)NS(=O)(=O)C1CC1 | < 0.05 | – | 567 | 12.6 | 42 | 25 | 1.5 | – | – | –
18 | C=C[C@@H]1C[C@]1(NC(=O)[C@@H]1C[C@@H]2CN1C(=O)[C@H](C1CCCC1)NC(=O)N1CC(OCC)(CCCCc3cc4c(cc(OCC)nc4cc3OC)O2)C1)C(=O)NS(=O)(=O)C1CC1 | < 0.05 | – | – | 1 | 7.1 | 18 | 0.9 | – | – | –
19 | C=C[C@@H]1C[C@]1(NC(=O)[C@@H]1C[C@@H]2CN1C(=O)[C@H](C1CCCC1)NC(=O)N1CC(C1)OCCC/C=C/c1cc3ccc(OC)cc3nc1O2)C(=O)NS(=O)(=O)C1CC1 | < 0.05 | – | – | 38 | 28 | – | 0.5 | – | – | –
20 | C=C[C@@H]1C[C@]1(NC(=O)[C@@H]1C[C@@H]2CN1C(=O)[C@H](C1CCCC1)NC(=O)O[C@@H]1COC[C@H]1CCC/C=C/c1cc3ccc(OC)cc3nc1O2)C(=O)NS(=O)(=O)C1CC1 | < 0.05 | – | 64 | 5.7 | 7.8 | 5 | 0.1 | – | – | –
21 | C=C[C@@H]1C[C@]1(NC(=O)[C@@H]1C[C@@H]2CN1C(=O)[C@H](C1CCCCC1)NC(=O)O[C@@H]1CCC[C@H]1C/C=C/c1cc3c(cc(OCC)nc3cc1OC)O2)C(=O)NS(=O)(=O)C1CC1 | < 0.05 | 37.1 | 40 | 3.1 | 2 | 55 | 1.3 | – | – | –
22 | C=C[C@@H]1C[C@]1(NC(=O)[C@@H]1C[C@@H]2CN1C(=O)[C@H](C1CCCC1)NC(=O)OC1CCC1C/C=C/c1cc3c(cc(OCC)nc3cc1OC)O2)C(=O)NS(=O)(=O)C1CC1 (mixture of isomers) | < 0.05 | – | – | 18 | 52 | – | 2.2 | – | – | –
23 | C=C[C@@H]1C[C@]1(NC(=O)[C@@H]1C[C@@H]2CN1C(=O)[C@H](C1CCCCC1)NC(=O)N1CCO[C@H](CCCCc3cc4c(cc(OCC)nc4cc3OC)O2)C1)C(=O)NS(=O)(=O)C1CC1 | < 0.05 | – | – | 5.2 | 6.9 | 9 | 1 | – | – | –
24 | C=C[C@@H]1C[C@]1(NC(=O)[C@@H]1C[C@@H]2CN1C(=O)[C@H](C1CCCC1)NC(=O)N(C)[C@@H]1CCC[C@H]1C/C=C/c1cc3c(cc(OCC)nc3cc1OC)O2)C(=O)NS(=O)(=O)C1CC1 | < 0.05 | 15.9 | 18 | 1.5 | 1.7 | 25 | 0.6 | – | – | –
